Columns and labels:
[1] = Mammalian toxicity in vitro, MTT colorimetric method; assay type: cell-based, Murine; conditions: mouse, NCTC clone 929 fibroblasts, pH 7.2, NCTC clone 929 cells, up to 200 μM
Description: The synthesized compounds were evaluated for their anti-L. (L.) infantum activity on intracellular amastigotes following 96 h treatment, with standard drug miltefosine used as a control. […] Leishmania (L.) infantum (MHOM/BR/1972/LD) amastigotes were obtained by differential centrifugation from golden hamsters (Mesocricetus auratus) spleens with 60–70 days of infection and the number of parasites was determined by the Stauber method.[18] Murine conjunctive fibroblasts NCTC clone 929 (ATCC) were maintained in RPMI-1640 medium supplemented with 10% FBS at pH 7.2 and 37 °C in a humidified incubator with 5% CO2. Peritoneal macrophages were by obtained by washing the peritoneal cavity of BALB/c mice with RPMI-1640 medium supplemented with 10% FBS, pH 7.2 and maintained at 37 °C in a humidified incubator with 5% CO2. NCTC cells (6 × 10^4/well) were added to 96-well plates and maintained at 37 °C in a 5% CO2 humidified incubator for 96 h with compounds serially diluted (1.6 to 200 μM). […] The determination of CC50 and IC50 values was performed by sigmoid dose–response curves using the Graph Pad Prism 5 software. The samples were tested in duplicate and the assays were reproduced at least twice.

[2] = tested on: Leishmania (L.) infantum intracellular amastigotes; assay: Anti-L. (L.) infantum activity in vitro, intracellular amastigotes in peritoneal macrophages, infection index; assay type: cell-based; conditions: L. (L.) infantum intracellular amastigotes in BALB/c peritoneal macrophages, 96 h treatment, NA = inactive
Description: The synthesized compounds were evaluated for their anti-L. (L.) infantum activity on intracellular amastigotes following 96 h treatment, with standard drug miltefosine used as a control. […] Leishmania (L.) infantum (MHOM/BR/1972/LD) amastigotes were obtained by differential centrifugation from golden hamsters (Mesocricetus auratus) spleens with 60–70 days of infection and the number of parasites was determined by the Stauber method.[18] Murine conjunctive fibroblasts NCTC clone 929 (ATCC) were maintained in RPMI-1640 medium supplemented with 10% FBS at pH 7.2 and 37 °C in a humidified incubator with 5% CO2. Peritoneal macrophages were by obtained by washing the peritoneal cavity of BALB/c mice with RPMI-1640 medium supplemented with 10% FBS, pH 7.2 and maintained at 37 °C in a humidified incubator with 5% CO2. Peritoneal macrophages (1 × 10^5/well) were added in 16-well slide chambers (NUNC) and incubated overnight at 37 °C with 5% CO2. Subsequently, the cells were infected with L. (L.) infantum amastigotes (10 : 1 amastigotes/macrophage) for 24 h, treated with compounds serially diluted (6.25 to 50 μM) and incubated for 96 h at 37 °C with 5% CO2. Miltefosine was used as standard drug and untreated cells as a negative control. Slides were fixed with methanol, stained with Giemsa and observed under a light microscope.[19] […] The determination of CC50 and IC50 values was performed by sigmoid dose–response curves using the Graph Pad Prism 5 software. The samples were tested in duplicate and the assays were reproduced at least twice.

[3] = tested on: T. cruzi trypomastigotes; design: method as in our previous work; conditions: ref our previous work; cited from earlier work

Compound | CC50 at 96 h [1] | IC50 ([2]; Peritoneal macrophage, 96 h) | also measured
C=CCc1ccc(Oc2cc(CC=C)cc(OC)c2OCc2ccc(OC)cc2)c(OC)c1 [Compound 1] | > 200 µM |  | IC50 (μM) ± SD [2]: inactive; activity against T. cruzi trypomastigotes [3]: 4.0 ± 1.4 µM
C=CCc1ccc(Oc2cc(CC=C)cc(OC)c2OCOC)c(OC)c1 [Compound 2] | > 200 µM |  | 
C=CCc1ccc(Oc2cc(CC=C)cc(OC)c2OCCN2CCCC2)c(OC)c1 [Compound 4] | 24.9 ± 2.6 µM | 4.1 ± 1.1 µM | 
C=CCc1ccc(Oc2cc(CC=C)cc(OC)c2OCCN2CCOCC2)c(OC)c1 [Compound 5] | 63.7 ± 0.2 µM | 9.6 ± 3.6 µM | 
C=CCc1ccc(Oc2cc(CC=C)cc(OC)c2OCC(=O)N2CCCC2)c(OC)c1 [Compound 6] | 52.9 ± 15.2 µM | 20.3 ± 5.9 µM | 
C=CCc1ccc(Oc2cc(CC=C)cc(OC)c2OCC(=O)N2CCOCC2)c(OC)c1 [Compound 7] | 112 ± 8.2 µM |  | 
C=CCc1cc(OC)cc(Oc2ccc(CC=C)cc2OC)c1 [Compound 8] | > 200 µM |  | 
C=CCc1cc(OC)c(OCc2ccc(OC)cc2)c(Oc2ccccc2OC)c1 [Compound 9] | > 200 µM | 24.2 ± 18.2 µM | 
C=CCc1ccc(Oc2cccc(OC)c2OCc2ccc(OC)cc2)c(OC)c1 [Compound 10] | > 200 µM |  | 
C=CCc1cc(OC)c(OC(C)=O)c(Oc2ccccc2OC)c1 [Compound 11] | > 200 µM | 32.7 ± 5 µM | 
C=CCc1ccc(Oc2cccc(OC)c2OC(C)=O)c(OC)c1 [Compound 12] | > 200 µM |  | 
C=CCc1cc(OC)c(OC)c(Oc2ccccc2OC)c1 [Compound 13] | > 200 µM |  | 
C=CCc1ccc(Oc2cccc(OC)c2OC)c(OC)c1 [Compound 14] | > 200 µM |  | 
C=CCc1cc(OC)c(O)c(Oc2ccccc2OC)c1 [Compound 15] | 31.6 ± 11.3 µM |  | 
C=CCc1ccc(Oc2cccc(OC)c2O)c(OC)c1 [Compound 16] | > 200 µM |  | 
C=CCc1cc(OC)c(O)c(Oc2ccc(CCC)cc2OC)c1 [Compound 17] | 42 ± 3.8 µM |  | 
C=CCc1ccc(Oc2cc(CCC)cc(OC)c2O)c(OC)c1 [Compound 18] | 14.2 ± 0.1 µM |  | 
C=CCc1cc(OC)c(OC)c(Oc2ccc(CCC)cc2OC)c1 [Compound 19] | > 200 µM |  | 
C=CCc1cc(OC)c(OCc2ccc(OC)cc2)c(Oc2ccc(CCC)cc2OC)c1 [Compound 20] | > 200 µM |  | 
C=CCc1ccc(Oc2cc(CCC)cc(OC)c2OCc2ccc(OC)cc2)c(OC)c1 [Compound 21] | > 200 µM |  | 

Compound | CC50 at 96 h [1] | IC50 ([2]; Peritoneal macrophage, 96 h) | also measured
CCCc1ccc(Oc2cc(CCC)cc(OC)c2OCc2ccc(OC)cc2)c(OC)c1 [Compound 22] | > 200 µM |  | 
C=CCc1cc(OC)c(OCc2ccc(OC)cc2)c(Oc2ccc(CN3CCCC3)cc2OC)c1 [Compound 23] | 6.2 ± 1.2 µM |  | 
C=CCc1cc(OC)c(OCc2ccc(OC)cc2)c(Oc2ccc(CN3CCOCC3)cc2OC)c1 [Compound 24] | > 200 µM | 9.7 ± 2 µM | 
CCCc1cc(OC)c(OCc2ccc(OC)cc2)c(Oc2ccc(CN3CCOCC3)cc2OC)c1 [Compound 25] | 74.4 ± 4.4 µM | 7.7 ± 0.8 µM | 
CCCc1cc(OC)c(OCc2ccc(OC)cc2)c(Oc2ccc(CN3CCCCC3)cc2OC)c1 [Compound 26] | 14.5 ± 0.2 µM | ~3 µM | IC50 [2]: 3.7 ± 0.5 µM
COc1ccc(COc2c(OC)cc(CN3CCOCC3)cc2Oc2ccc(CN3CCOCC3)cc2OC)cc1 [Compound 27] | 74.4 ± 5.8 µM | 27.8 ± 7.4 µM | 
CCCc1ccc(Oc2cc(CN3CCOCC3)cc(OC)c2OCc2ccc(OC)cc2)c(OC)c1 [Compound 28] | > 200 µM | 16.4 ± 4.3 µM | 
CCCc1ccc(Oc2cc(CN3CCOCC3)cc(OC)c2OCc2ccc(C(F)(F)F)cc2)c(OC)c1 [Compound 29] | > 200 µM | 13.2 ± 2.1 µM | 
CCCc1ccc(Oc2cc(CN3CCOCC3)cc(OC)c2OCc2cc(OC)c(OC)c(OC)c2)c(OC)c1 [Compound 30] | > 200 µM | 26.3 ± 3.2 µM | 
C=CCc1cc(OC)c(O)c(Oc2ccc(CN3CCOCC3)cc2OC)c1 [Compound 31] | 51.4 ± 4.7 µM |  | IC50 (μM) ± SD [2]: no anti-parasitic activity
C=CCc1cc(OC)c(O)c(Oc2ccc(CN3CCCC3)cc2OC)c1 [Compound 32] | 43.3 ± 5.3 µM |  | IC50 (μM) ± SD [2]: no anti-parasitic activity
CCCc1ccc(Oc2cc(CN3CCCCC3)cc(OC)c2OCc2ccc(OC)cc2)cc1 [Compound 33] | 22.7 ± 0.9 µM | ~3 µM | 
CCCc1ccc(Oc2cc(CN3CCOCC3)cc(OC)c2OCc2ccc(OC)cc2)cc1 [Compound 34] | > 200 µM | 15.3 ± 1.9 µM | 
CCCc1ccc(OCc2ccc(OC)cc2)c(Oc2ccc(CN3CCOCC3)cc2OC)c1 [Compound 35] | 33.8 ± 4.9 µM |  | IC50 (μM) ± SD [2]: inactive
C=CCc1ccc(Oc2cc(CC=C)cc(OC)c2OCc2ccc(OC)cc2)cc1 [Compound 36] | > 200 µM |  | 
C=CCc1ccc(Oc2cc(CC=C)cc(OC)c2O)cc1 [Compound 37] | 123 ± 9.4 µM |  | 
C=CCc1ccc(Oc2cc(CC=C)ccc2OCc2ccc(OC)cc2)c(OC)c1 [Compound 38] | > 200 µM |  | 
C=CCc1ccc(O)c(Oc2ccc(CC=C)cc2OC)c1 [Compound 39] | 129 ± 5.2 µM |  | 
CCCCCCCCCCCCCCCCOP(=O)([O-])OCC[N+](C)(C)C [Milt., miltefosine, reference compound] | 120 ± 4.2 µM | 6.5 ± 3 µM | 

Reference: PMC10357944 (RSC Medicinal Chemistry, 2023)
